Test results from paper PMC10247784, “Physiological activation of human and mouse bitter taste receptors by bile acids” (Communications Biology, 2023).

Target: T1, mouse Tas2r144 (Mus musculus, UniProt Q7TQB8)
T1 construct: expressed in transfected cells; host or cells: HEK293T-Gα16gust44
Assay: Calcium imaging assay (FLIPR), HEK293T-Gα16gust44 cells transfected with mouse Tas2r144
Format: cell-based
Details: for Δ F/F: Tas2r144
Protocol: This set of bile acids was chosen because of their commercial availability in high purities, their diversity within the class of bile acids and their previous detection and quantitation in human blood. Stock solutions were prepared in DMSO.
As basal growth medium for the HEK293T-Gα16gust44 cell line[17],[59] served Dulbecco’s modified eagle medium (DMEM) (Thermo Fisher Scientific, Darmstadt, Germany) supplemented with 10 % fetal bovine serum (Sigma-Aldrich, Steinheim, Germany), 2 mM L-glutamine (Sigma-Aldrich, Steinheim, Germany), 100 units/ml penicillin (Sigma Aldrich, Steinheim, Germany) and 100 µg/ml streptomycin (Sigma Aldrich, Steinheim, Germany). Growth conditions were 37 °C, 5 % CO2 and saturated air-humidity[60].
HEK293T-Gα16gust44 cells were seeded on poly-D-lysine (10 µg/ml) coated 96-well plates to reach a confluence of 40-60 % the next day. For transient transfection 150 ng of plasmid DNA containing the receptor of interest and 0.3 µl lipofectamine 2000 (Thermo Fisher Scientific, Darmstadt, Germany) per well were used and transfection took place according to the manual of lipofectamine 2000. […] The empty vector DNA (mock) was transfected as negative control[14],[41].
Cells were loaded using the calcium-sensitive fluorescent dye Fluo-4-AM (Abcam, Cambridge, Great Britain) in the presence of 2.5 mM probenecid (Sigma-Aldrich, Steinheim, Germany) the day after transfection[13],[41]. 1 h after loading, cells were washed with C1 buffer using a BioTek Cell Washer, incubated in the dark for half an hour and washed again. For automated agonist application and measurement of fluorescence changes, a FLIPR^TETRA device (Molecular Devices, San José, United States) was used. Viability of cells was tested by application of 100 nM Somatostatin 14 (Bachem, Bubendorf, Switzerland)[42].
Measured data were negative control corrected by subtracting the signal of the mock-transfected cells and exported to Microsoft Excel using the FLIPR software ScreenWorks 4.2. In Microsoft Excel software, standardization of maximum fluorescence intensities to the basal fluorescence and normalization to the buffer-only control was done to calculate the relative fluorescence changes (ΔF/F).
Initial screening experiments performed in duplicate wells were confirmed by at least one replication and representative traces were selected for display. All dose-response relationships were determined by three independent experiments (biological replicates) performed in duplicates (technical replicates). Threshold concentrations, defined as lowest substance concentrations leading to statistically significant elevated fluorescence changes in receptor-transfected cells compared with empty vector-transfected cells, were determined using SigmaPlot with Student’s t-test to evaluate statistical significance (p < 0.01).

T1 sequence (Q7TQB8 whole entry): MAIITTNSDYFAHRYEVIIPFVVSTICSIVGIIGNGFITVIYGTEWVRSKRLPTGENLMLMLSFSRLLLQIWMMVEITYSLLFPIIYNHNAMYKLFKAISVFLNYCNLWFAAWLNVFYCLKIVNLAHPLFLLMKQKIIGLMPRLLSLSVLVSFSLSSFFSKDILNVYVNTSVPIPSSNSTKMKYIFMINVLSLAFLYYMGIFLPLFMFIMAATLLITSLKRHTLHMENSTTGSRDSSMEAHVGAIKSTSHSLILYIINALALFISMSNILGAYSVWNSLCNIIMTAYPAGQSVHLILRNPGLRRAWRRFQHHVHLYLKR

## C[C@H](CCC(=O)NCC(=O)O)[C@H]1CC[C@H]2[C@@H]3[C@H](O)C[C@@H]4C[C@H](O)CC[C@]4(C)[C@H]3C[C@H](O)[C@]12C [Glycocholic Acid, glycocholic acid]
conc. 0,01 mM
  Δ F/F: 0.007151
conc. 0,1 mM
  Δ F/F: 0.04043
conc. 0,03 mM
  Δ F/F: 0.015
conc. 0,3 mM
  Δ F/F: 0.08047
conc. 0,003 mM
  Δ F/F: 0.00267
Time 0 s
  RLU: 0 RLU
Time 2 s
  RLU: -31.2125 RLU
Time 4 s
  RLU: -43.6447 RLU
Time 6 s
  RLU: -0.4257 RLU
Time 8 s
  RLU: -5.711 RLU
Time 12 s
  RLU: -13.8091 RLU
Time 14 s
  RLU: -0.4257 RLU
Time 16 s
  RLU: -0.5597 RLU
Time 18 s
  RLU: 10.0299 RLU
Time 18.781 s
  RLU: -3.913 RLU
Time 20.781 s
  RLU: -28.6004 RLU
Time 22.781 s
  RLU: -59.2077 RLU
Time 24.781 s
  RLU: -17.5148 RLU
Time 26.781 s
  RLU: 37.2224 RLU
Time 28.781 s
  RLU: 99.9904 RLU
Time 30.781 s
  RLU: 135.498 RLU
Time 32.781 s
  RLU: 202.624 RLU
Time 34.781 s
  RLU: 240.201 RLU
Time 36.781 s
  RLU: 276.718 RLU
Time 38.781 s
  RLU: 320.611 RLU
Time 40.781 s
  RLU: 324.075 RLU
Time 42.781 s
  RLU: 335.112 RLU
Time 44.781 s
  RLU: 371.949 RLU
Time 46.781 s
  RLU: 375.35 RLU
Time 48.781 s
  RLU: 395.668 RLU
Time 50.781 s
  RLU: 393.283 RLU
Time 52.781 s
  RLU: 432.603 RLU
Time 54.781 s
  RLU: 444.104 RLU
Time 56.781 s
  RLU: 419.562 RLU
Time 58.781 s
  RLU: 425.176 RLU
Time 60.781 s
  RLU: 431.497 RLU
Time 62.781 s
  RLU: 417.317 RLU
Time 64.781 s
  RLU: 465.061 RLU
Time 66.781 s
  RLU: 447.834 RLU
Time 68.781 s
  RLU: 427.827 RLU
Time 70.781 s
  RLU: 415.079 RLU
Time 72.781 s
  RLU: 432.914 RLU
Time 74.781 s
  RLU: 450.52 RLU
Time 76.781 s
  RLU: 421.617 RLU
Time 78.781 s
  RLU: 441.46 RLU
Time 80.781 s
  RLU: 426.566 RLU
Time 82.781 s
  RLU: 423.408 RLU
Time 84.781 s
  RLU: 393.748 RLU
Time 86.781 s
  RLU: 429.403 RLU
Time 88.781 s
  RLU: 405.471 RLU
Time 90.781 s
  RLU: 401.169 RLU
Time 92.781 s
  RLU: 422.993 RLU
Time 94.781 s
  RLU: 401.134 RLU
Time 96.781 s
  RLU: 381.14 RLU
Time 98.781 s
  RLU: 357.346 RLU
Time 100.781 s
  RLU: 380.46 RLU
Time 102.781 s
  RLU: 368.041 RLU
Time 104.781 s
  RLU: 369.437 RLU
Time 106.781 s
  RLU: 355.75 RLU
Time 108.781 s
  RLU: 354.221 RLU
Time 110.781 s
  RLU: 346.013 RLU
Time 112.781 s
  RLU: 352.628 RLU
Time 114.781 s
  RLU: 328.654 RLU
Time 116.781 s
  RLU: 301.02 RLU
Time 118.781 s
  RLU: 305.388 RLU
Time 120.781 s
  RLU: 301.126 RLU
Time 122.781 s
  RLU: 277.354 RLU
Time 124.781 s
  RLU: 278.403 RLU
Time 126.781 s
  RLU: 268.257 RLU
Time 128.781 s
  RLU: 264.093 RLU
Time 130.781 s
  RLU: 273.404 RLU
Time 132.781 s
  RLU: 241.449 RLU
Time 134.781 s
  RLU: 241.405 RLU
Time 136.781 s
  RLU: 246.641 RLU
Time 137.562 s
  RLU: 213.654 RLU
Time 143.562 s
  RLU: 221.818 RLU
Time 149.562 s
  RLU: 207.299 RLU
Time 155.562 s
  RLU: 180.281 RLU
Time 161.562 s
  RLU: 165.822 RLU
Time 167.562 s
  RLU: 177.105 RLU
Time 173.562 s
  RLU: 151.305 RLU
Time 179.562 s
  RLU: 140.777 RLU
Time 185.562 s
  RLU: 121.278 RLU
Time 191.562 s
  RLU: 122.229 RLU
Time 197.562 s
  RLU: 118.034 RLU
Time 203.562 s
  RLU: 110.818 RLU
Time 209.562 s
  RLU: 87.4457 RLU
Time 215.562 s
  RLU: 107.926 RLU
Time 221.562 s
  RLU: 45.9427 RLU
Time 227.562 s
  RLU: 30.7626 RLU
Time 233.562 s
  RLU: 60.9884 RLU
Time 239.562 s
  RLU: 58.9568 RLU
Time 245.562 s
  RLU: 54.3153 RLU
Time 293.562 s
  RLU: 51.7559 RLU
Time 299.562 s
  RLU: 74.5788 RLU
Time 305.562 s
  RLU: 55.2043 RLU
Time 311.562 s
  RLU: 49.25 RLU
Time 317.562 s
  RLU: 60.65 RLU
Time 323.562 s
  RLU: 55.6278 RLU
Time 329.562 s
  RLU: 55.0836 RLU
Time 335.562 s
  RLU: 69.3242 RLU
Time 341.562 s
  RLU: 66.607 RLU
Time 347.562 s
  RLU: 79.0246 RLU
Time 353.562 s
  RLU: 84.7807 RLU
Time 359.562 s
  RLU: 64.803 RLU
P < 0.01 vs empty vector
  Activation threshold concentration Tas2r144: 100 µM
